Results as given in US4859696A, “Precutaneous absorption accelerator and preparation containing same” (Kao Corporation, priority 1984, dated 1989).

How the values were obtained:
carrageenin caused edema = test: Inhibition of carrageenin caused edema on the paw of the rat; assay type: in vivo, rat (Wistar male); conditions: as compared to the comparative preparation
Experimental: With respect to the topical agents of the present invention, the pharmacological effect was examined according to the inhibition of carrageenin caused edema on the paw of the rat.
Wistar male 10 rats, weighing about 110 g, were used as one group. The volume of the right rear paw of the rats in each group was previously measured using a branched glass container. A 1% carrageenin aqueous solution was subcutaneously injected to the right rear paw sole in a dose of 0.125 ml. Immediately thereafter 0.3 g of indomethacin topical agents were applied to the skin of the right rear paw sole. In the control group, carrageenin alone was injected. Then, the volume of the rear paw was measured every 90 minutes, which was continued until 6 hours after. The rate of edema and the inhibition rate of edema were calculated as described below. [formula]

[1] = Test for percutaneous absorption of methyl salicylate (cataplasms); assay type: in vivo, rabbit (Japanese white female); conditions: as compared to the cataplasm for comparison
Experimental: Cataplasms shown below were prepared and, the percutaneous absorption of methyl salicylate was tested.
Seven (7) Japanese white female rabbits weighing about 3 kg were used as one group. […] Blood was collected from the vein of the femur after 3, 6, 10, 20 and 30 hours and, blood concentration of methyl salicylate was measured.

[2] = Change in blood sugar level after rectal administration of insulin solutions to rabbits; assay type: in vivo, rabbit (Japanese white male)
Experimental: Japanese white male rabbits weighing about 2.5 kg, fasted for 24 hours, were fixed at the back, and each of solutions shown in Table 1 was administered to the rectum of about 2.5 cm from the anus using a tube. Cannule was inserted into the femoral vein of the hind leg to collect about 0.2 ml each of blood in every fixed time interval. Blood sugar level was measured using destrostick. Change in blood sugar level was determined with the passage of time, as the blood sugar level prior to administration being rendered 100%.

[3] = Test of percutaneous absorption of indomethacin; assay type: in vivo, rabbit (Japanese white female); conditions: as compared to the comparative preparations
Experimental: Topical agents containing indometacin shown below were prepared and percutaneous absorption was examined with the topical agents.
Seven (7) Japanese white female rabbits weighing about 3 kg were used as one group. The topical agents of the present invention and the comparative preparations were applied onto the normal abdominal skin (10 cm×14 cm) of the rabbits in each group, from which the body hair was cut, respectively, at a dose corresponding to 20 mg of indomethacin. Blood was collected from the vein of the ear after 4, 10 and 20 hours and, blood concentration of indomethacin was measured.

[4] = 15 mins., this invention, ether derivative 0.1 g with insulin 10/kg, saline 0.65 g, ethanol 0.25 g
[5] = 30 mins., this invention, ether derivative 0.1 g with insulin 10/kg, saline 0.65 g, ethanol 0.25 g
[6] = 45 mins., this invention, ether derivative 0.1 g with insulin 10/kg, saline 0.65 g, ethanol 0.25 g
[7] = 60 mins., this invention, ether derivative 0.1 g with insulin 10/kg, saline 0.65 g, ethanol 0.25 g
[8] = 90 mins., this invention, ether derivative 0.1 g with insulin 10/kg, saline 0.65 g, ethanol 0.25 g
[9] = 120 mins., this invention, ether derivative 0.1 g with insulin 10/kg, saline 0.65 g, ethanol 0.25 g

## CCCCCCCCCCCCOCC(COC)OCC(O)CO (stereo not drawn) [1-O-n-dodecyl-3-O-methyl-2-O-2',3'-dihydroxypropylglycerol]
Carrageenin caused edema
  rate of preventing the edema / pharmacological effect of indomethacin (in words): extremely high pharmacological effect of indomethacin
[1]
  percutaneous absorption of methyl salicylate (in words): extremely high percutaneous absorption of methyl salicylate
[2]; 15 mins., control, ether derivative 1 g
  Rate of Change in Blood Sugar Level before Administration: +6.5%
[2]; 15 mins., this invention, ether derivative 0.05 g with insulin 10/kg, saline 0.70 g, ethanol 0.25 g
  Rate of Change in Blood Sugar Level before Administration: -13.4%
[2]; [4]
  Rate of Change in Blood Sugar Level before Administration: -19.2%
[2]; 30 mins., control, ether derivative 1 g
  Rate of Change in Blood Sugar Level before Administration: +10.2%
[2]; 30 mins., this invention, ether derivative 0.05 g with insulin 10/kg, saline 0.70 g, ethanol 0.25 g
  Rate of Change in Blood Sugar Level before Administration: -18.6%
[2]; [5]
  Rate of Change in Blood Sugar Level before Administration: -28.9%
[2]; 45 mins., control, ether derivative 1 g
  Rate of Change in Blood Sugar Level before Administration: +9.8%
[2]; 45 mins., this invention, ether derivative 0.05 g with insulin 10/kg, saline 0.70 g, ethanol 0.25 g
  Rate of Change in Blood Sugar Level before Administration: -25.2%
[2]; [6]
  Rate of Change in Blood Sugar Level before Administration: -32.7%
[2]; 60 mins., control, ether derivative 1 g
  Rate of Change in Blood Sugar Level before Administration: +9.5%
[2]; 60 mins., this invention, ether derivative 0.05 g with insulin 10/kg, saline 0.70 g, ethanol 0.25 g
  Rate of Change in Blood Sugar Level before Administration: -27.6%
[2]; [7]
  Rate of Change in Blood Sugar Level before Administration: -28.0%
[2]; 90 mins., control, ether derivative 1 g
  Rate of Change in Blood Sugar Level before Administration: +9.5%
[2]; 90 mins., this invention, ether derivative 0.05 g with insulin 10/kg, saline 0.70 g, ethanol 0.25 g
  Rate of Change in Blood Sugar Level before Administration: -25.8%
[2]; [8]
  Rate of Change in Blood Sugar Level before Administration: -19.5%
[2]; 120 mins., control, ether derivative 1 g
  Rate of Change in Blood Sugar Level before Administration: +10.2%
[2]; 120 mins., this invention, ether derivative 0.05 g with insulin 10/kg, saline 0.70 g, ethanol 0.25 g
  Rate of Change in Blood Sugar Level before Administration: -22.4%
[2]; [9]
  Rate of Change in Blood Sugar Level before Administration: -18.2%
[3]
  percutaneous absorption of indomethacin (in words): extremely high percutaneous absorption of indomethacin

## Insulin: Insulin 10/kg in 25% Ethanol solution (control of Table 1)
[2]; 15 mins., control, insulin 10/kg in 25% ethanol solution
  Rate of Change in Blood Sugar Level before Administration: +5.0%
[2]; 30 mins., control, insulin 10/kg in 25% ethanol solution
  Rate of Change in Blood Sugar Level before Administration: +12.9%
[2]; 45 mins., control, insulin 10/kg in 25% ethanol solution
  Rate of Change in Blood Sugar Level before Administration: +11.5%
[2]; 60 mins., control, insulin 10/kg in 25% ethanol solution
  Rate of Change in Blood Sugar Level before Administration: +4.8%
[2]; 90 mins., control, insulin 10/kg in 25% ethanol solution
  Rate of Change in Blood Sugar Level before Administration: +1.5%
[2]; 120 mins., control, insulin 10/kg in 25% ethanol solution
  Rate of Change in Blood Sugar Level before Administration: +2.7%

## 1-O-methyl-branched isostearyl-3-O-methyl-2-O-2',3'-dihydroxypropylglycerol
[2]; [4]
  Rate of Change in Blood Sugar Level before Administration: -17.8%
[2]; [5]
  Rate of Change in Blood Sugar Level before Administration: -18.3%
[2]; [6]
  Rate of Change in Blood Sugar Level before Administration: -24.5%
[2]; [7]
  Rate of Change in Blood Sugar Level before Administration: -28.6%
[2]; [8]
  Rate of Change in Blood Sugar Level before Administration: -21.9%
[2]; [9]
  Rate of Change in Blood Sugar Level before Administration: -19.8%
